Measured values: patent publication US20230201383A1, “PSMA TARGETING UREA-BASED LIGANDS FOR PROSTATE CANCER RADIOTHERAPY AND IMAGING” (Rigshospitalet, priority 2020, published 2023)
“Also recorded” adds a separate entry of the source. Structures can show the parent of a compound that is named as a salt.

Experiments:
PSMA(+) LNCaP cells = assay: Internalisation and cell surface binding of 68Ga-labeled compounds in LNCaP cells; format: cell-based, human
Experimental: Compounds Ii, Ij, Ik, Il, Im and In was provided using the same method as disclosed in Example 3 and in vitro test of the binding affinity and internalisation of the compounds were examined using the method as described in Benesova et al, 2016^9. The iodine isotope used was ^127I.
For internalisation determinations, a day before the experiment, PSMA(+) LNCaP cells were seeded in a poly-L-lysine coated 24-well plate (10^5 cells per well) and maintained at 37° C. in an atmosphere of 5% CO2 under supplemented RMPI medium (10% Fetal Calf Serum, 1% sodium pyruvate, 1% FIS). Cells were incubated with 250 μL of radiolabelled compound diluted in RPMI medium (final concentration of [^68Ga]-peptide: 30 nM) and 500 μM of PMPA (2-phosphonomethyl-pentanedioic acid) for the blocked series, for 45 min at 37° C. Cellular uptake was interrupted by washing the cells with ice-cold PBS (3×1 mL). Surface bound radioactivity was removed by incubating twice with 0.5 mL glycine (50 mM, pH=2.8) for 5 min. Thereafter, cells were washed with PBS (1 mL) and lysed employing NaOH (0.3 M) during 10 min. Lysates and surface-bound activity were collected and measured in a gamma-counter (Perkin Elmer 2480, Wizard, Gamma Counter). The cell uptake was calculated as percent of the initially added radioactivity bound to […].
For internalisation studies androgen-sensitive human prostate adenocarcinoma cells (LNCaP) highly overexpressing PSMA were incubated with the ^68Ga-labeled compounds resulting in specific cell surface binding of all tested compounds (Table 2).

[1] = test system: LNCaP-tumor-bearing athymic nude mice; assay: Small-animal PET imaging: tumor uptake and pharmacokinetic profile; format: in vivo; details: for Binding profile and biodistribution/pharmacokinetics compared with PSMA-617: direct head-to-head comparison with PSMA-617
Experimental: For the experimental tumor models 1×10^7 cells of LNCaP (in 50% Matrigel; Becton Dickinson) were subcutaneously inoculated into the right flank of 7- to 8-week-old male BALB/c nu/nu mice (Janvier). For imaging studies, mice were anesthetized (2% isoflurane) and 0.5 nmol of the ^68Ga-labeled compound in 0.9% NaCl (pH 7) were injected into the tail vein. PET imaging was performed with μPET/MRI scanner (BioSpec 3T, Bruker) with a dynamic scan for 60 min. The images were iteratively reconstructed (MLEM 0.5 algorithm, 12 iterations) and were converted to SUV images. Quantification was done using a ROI (region of interest) technique and data in expressed in time activity curves as SUVbody weight. All animal experiments complied with the current laws of the Federal Republic of Germany.
FIGS. 2 to 7 show the pharmacokinetic study with small-animal PET imaging. Time activity curves for non-target organs and tumor after injection of 0.5 nmol ^68Ga-labeled compounds in LNCaP-tumor-bearing athymic nude mice (right trunk) up to 60 min p.i. SUV=standardized uptake value.

[2] = 68Ga-labeled compounds, 30 nM, 45 min at 37° C., LNCaP cells, specific uptake by blockage with 500 μM 2-PMPA, mean ± SD (n=3)
[3] = 68Ga-labeled compounds, LNCaP cells
[4] = 0.5 nmol 68Ga-labeled compound i.v., PET up to 60 min p.i., time activity curves (SUV)
[5] = 68Ga-labeled compounds, LNCaP cells, trifluoroacetic acid salt

| Tumor uptake compared with PSMA-617 [1, 4] | Structure (SMILES) | Specifically cell surface bound (PSMA(+) LNCaP cells; [2]) [% IA/10^5 cells] | Specifically internalised (PSMA(+) LNCaP cells; [2]) [% IA/10^5 cells] | Internalisation compared with PSMA-617 (in words) (PSMA(+) LNCaP cells; [3]) | Tumor-to-muscle ratio compared with PSMA-617 [1, 4] | Binding profile and biodistribution/pharmacokinetics compared with PSMA-617 [1] | Internalisation compared with PSMA-617 (in words) (PSMA(+) LNCaP cells; [5]) | Tumor accumulation (reversibility) [1, 4] | Specifically cell surface bound (PSMA(+) LNCaP cells; 0.75 h, 0.03 µM) [% IA/10^5 cells] |
| --- | --- | --- | --- | --- | --- | --- | --- | --- | --- |
| – | O=C(O)CC[C@H](NC(=O)N[C@@H](CCCCNC(=O)[C@H](Cc1ccccc1I)NC(=O)[C@H]1CC[C@H](CNC(=O)CN2CCN(CC(=O)O)CCN(CC(=O)O)CCN(CC(=O)O)CC2)CC1)C(=O)O)C(=O)O [Ii, (((S)-1-carboxy-5-((S)-3-(2-iodophenyl)-2-((1r,4S)-4-((2-(4,7,10-tris(carboxymethyl)-1,4,7,10-tetraazacyclododecan-1-yl)acetamido)methyl)cyclohexane-1-carboxamido)propanamido)pentyl)carbamoyl)-L-glutamic acid trifluoroacetic acid salt] | 1.1 ± 0.4 | 0.7 ± 0.1 | comparable to PSMA-617 | increased at later time points compared to PSMA-617 | comparable or superior to values observed for PSMA-617 | – | – | – |
| – | O=C(O)CC[C@H](NC(=O)N[C@@H](CCCCNC(=O)[C@H](Cc1cccc(I)c1)NC(=O)[C@H]1CC[C@H](CNC(=O)CN2CCN(CC(=O)O)CCN(CC(=O)O)CCN(CC(=O)O)CC2)CC1)C(=O)O)C(=O)O [Ij, (((S)-1-carboxy-5-((S)-3-(3-iodophenyl)-2-((1r,4S)-4-((2-(4,7,10-tris(carboxymethyl)-1,4,7,10-tetraazacyclododecan-1-yl)acetamido)methyl)cyclohexane-1-carboxamido)propanamido)pentyl)carbamoyl)-L-glutamic acid trifluoroacetic acid salt] | 2.3 ± 0.2 | 0.8 ± 0.3 | – | – | – | higher than or comparable to PSMA-617; also recorded: comparable to PSMA-617 | – | – |
| – | O=C(O)CC[C@H](NC(=O)N[C@@H](CCCCNC(=O)[C@H](Cc1ccc(I)cc1)NC(=O)[C@H]1CC[C@H](CNC(=O)CN2CCN(CC(=O)O)CCN(CC(=O)O)CCN(CC(=O)O)CC2)CC1)C(=O)O)C(=O)O [Ik, (((S)-1-carboxy-5-((S)-3-(4-iodophenyl)-2-((1r,4S)-4-((2-(4,7,10-tris(carboxymethyl)-1,4,7,10-tetraazacyclododecan-1-yl)acetamido)methyl)cyclohexane-1-carboxamido)propanamido)pentyl)carbamoyl)-L-glutamic acid trifluoroacetic acid salt] | 0.7 ± 0.1 | 0.6 ± 0.3 | comparable to PSMA-617 | – | – | – | more reversible tumor accumulation | – |
| – | O=C(O)CC[C@H](NC(=O)N[C@@H](CCCCNC(=O)[C@@H](Cc1c[nH]c2ccc(I)cc12)NC(=O)[C@H]1CC[C@H](CNC(=O)CN2CCN(CC(=O)O)CCN(CC(=O)O)CCN(CC(=O)O)CC2)CC1)C(=O)O)C(=O)O [Il, (((S)-1-carboxy-5-((R)-3-(5-iodo-1H-indol-3-yl)-2-((1r,4R)-4-((2-(4,7,10-tris(carboxymethyl)-1,4,7,10-tetraazacyclododecan-1-yl)acetamido)methyl)cyclohexane-1-carboxamido)propanamido)pentyl)carbamoyl)-L-glutamic acid trifluoroacetic acid salt] | 1.6 ± 0.4 | 0.6 ± 0.2 | comparable to PSMA-617 | – | – | – | – | – |
| higher tumor uptake compared to PSMA-617 | O=C(O)CC[C@H](NC(=O)N[C@@H](CCCCNC(=O)[C@H](Cc1ccc2ccccc2c1)NC(=O)[C@H]1CC[C@H](CNC(=O)[C@H](Cc2ccc(I)cc2)NC(=O)CN2CCN(CC(=O)O)CCN(CC(=O)O)CCN(CC(=O)O)CC2)CC1)C(=O)O)C(=O)O [Im, (((S)-1-carboxy-5-((S)-2-((1S,4S)-4-(((S)-3-(4-iodophenyl)-2-(2-(4,7,10-tris(carboxymethyl)-1,4,7,10-tetraazacyclododecan-1-yl)acetamido)propanamido)methyl)cyclohexanecarboxamido)-3-(naphthalen-2-yl)propanamido)pentyl)carbamoyl)-L-glutamic acid trifluoroacetic acid salt] | 1.6 ± 0.5 | 0.9 ± 0.5 | – | – | comparable or superior to values observed for PSMA-617 | higher than or comparable to PSMA-617; also recorded: comparable to PSMA-617 | – | – |
| – | O=C(O)CC[C@H](NC(=O)N[C@@H](CCCCNC(=O)[C@H](Cc1ccc2ccccc2c1)NC(=O)[C@H](Cc1ccc(I)cc1)NC(=O)CN1CCN(CC(=O)O)CCN(CC(=O)O)CCN(CC(=O)O)CC1)C(=O)O)C(=O)O [In, (((S)-1-carboxy-5-((S)-2-((S)-3-(4-iodophenyl)-2-(2-(4,7,10-tris(carboxymethyl)-1,4,7,10-tetraazacyclododecan-1-yl)acetamido)propanamido)-3-(naphthalen-2-yl)propanamido)pentyl)carbamoyl)-L-glutamic acid trifluoroacetic acid salt] | 0.4 ± 0.1 | 0.2 ± 0.1 | reduced internalised fraction | – | – | – | – | – |
| – | O=C(O)CC[C@H](NC(=O)N[C@@H](CCCCNC(=O)[C@H](Cc1ccc2ccccc2c1)NC(=O)[C@H]1CC[C@H](CNC(=O)CN2CCN(CC(=O)O)CCN(CC(=O)O)CCN(CC(=O)O)CC2)CC1)C(=O)O)C(=O)O [PSMA-617, reference compound] | – | 0.6 ± 0.2 | – | – | – | – | – | 1.5 ± 0.4 |
